{
  "source": "patent US20090270350A1",
  "about": "“Pyridinone Pyrazole Urea and Pyrimidinone Pyrazole Urea Derivatives” (PFIZER INC., priority 2006, published 2009)",
  "data": [
    {"target": "p38α (Homo sapiens, UniProt Q16539)", "sequence (Q16539 whole entry)": "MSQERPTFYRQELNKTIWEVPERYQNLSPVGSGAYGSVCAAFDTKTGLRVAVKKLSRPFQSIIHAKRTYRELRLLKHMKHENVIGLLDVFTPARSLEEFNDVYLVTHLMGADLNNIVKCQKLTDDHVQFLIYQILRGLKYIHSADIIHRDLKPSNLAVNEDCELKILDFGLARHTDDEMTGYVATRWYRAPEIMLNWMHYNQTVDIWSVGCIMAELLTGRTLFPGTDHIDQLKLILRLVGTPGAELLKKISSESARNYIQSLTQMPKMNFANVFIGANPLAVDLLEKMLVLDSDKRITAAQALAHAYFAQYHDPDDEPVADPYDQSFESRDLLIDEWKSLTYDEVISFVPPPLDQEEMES", "experiment": "p38α/MK2 cascade assay", "assay_type": "biochemical", "conditions": "Table 1; inhibitors preincubated with p38α for 40 minutes; phosphorylation of Hsp27 peptide by MK-2, Caliper LabChip 3000; read-out: p38a/MK2 Cascade 40 min Pre-Incuabtion (% Inhibition): IC50", "method_in_brief": "(§1)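 In a cascade format, p38α was preincubated 40 min with inhibitor (1000–0.05 nM) before adding 1 nM nonactive MK2 (54-400), 5 μM MgATP and 0.5 μM FITC-Hsp27 peptide. Reaction ran 60 min in HEPES pH 7.5 with MgCl2, DTT, 2% DMSO, then EDTA-quenched. Peptide phosphorylation was measured by Caliper mobility shift to give IC50.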", "units": {"IC50": "nM"}, "values": [
      {"smiles": "COc1cccc(Cn2c(C)cc(OCc3ccc(F)cc3CNC(=O)Nc3cc(C(C)(C)C)nn3-c3cccc(OCCO)c3)c(Cl)c2=O)c1", "note": "[Example 39, 1-{3-tert-butyl-1-[3-(2-hydroxyethoxy)phenyl]-1-pyrazol-5-yl}-3-[2-({[3-chloro-1-(3-methoxybenzyl)-6-methyl-2-oxo-1,2-dihydropyridin-4-yl]oxy}methyl)-5-fluorobenzyl]urea]", "IC50": 7.3},
      {"smiles": "COc1cccc(-n2nc(C(C)(C)C)cc2NC(=O)NCc2ccccc2COc2cc(C)n(Cc3ccc(OC)cc3OC)c(=O)c2C)c1", "note": "[Example 123, 1-[3-tert-butyl-1-(3-methoxyphenyl)-1H-pyrazol-5-yl]-3-[2-({[1-(2,4-dimethoxybenzyl)-3,6-dimethyl-2-oxo-1,2-dihydropyridin-4-yl]oxy}methyl)benzyl]urea]", "IC50": 11.1},
      {"smiles": "COc1ccc(Cn2c(C)cc(OCc3ccccc3CNC(=O)Nc3cc(C(C)(C)C)nn3-c3cccc(O)c3)cc2=O)cc1", "note": "[Example 55, 1-[3-tert-butyl-1-(3-hydroxyphenyl)-1H-pyrazol-5-yl]-3-[2-({[1-(4-methoxybenzyl)-6-methyl-2-oxo-1,2-dihydropyridin-4-yl]oxy}methyl)benzyl]urea]", "IC50": 24.3}
    ]},
    {"target": "p38α (Homo sapiens, UniProt Q16539)", "experiment": "p38α/MK2 cascade assay", "assay_type": "biochemical", "conditions": "Table 2; same p38α/MK2 cascade assay; 40 minutes preincubation; read-out: p38a/MK2 Cascade 40 min Pre-Incuabtion (% Inhibition): IC50", "method_in_brief": "as §1", "units": {"IC50": "nM"}, "values": [
      {"smiles": "Cc1ccc(C(=O)NCCN(C)C)cc1-n1c(C)cc(OCc2ccccc2CNC(=O)Nc2cc(C(C)(C)C)nn2-c2cccc(OCCO)c2)c(Cl)c1=O", "note": "[Example 240, 3-[4-{[2-({[({3-tert-butyl-1-[3-(2-hydroxyethoxy)phenyl]-1H-pyrazol-5-yl}amino)carbonyl]amino}methyl)benzyl]oxy}-3-chloro-6-methyl-2-oxopyridin-1(2H)-yl]-N-[2-(dimethylamino)-ethyl]-4-methylbenzamide]", "IC50": 2.1},
      {"smiles": "CSc1ccccc1Cn1c(C)cc(OCc2ccccc2CNC(=O)Nc2cc(C(C)(C)C)nn2-c2ccc(Cl)c(O)c2)c(Cl)c1=O", "note": "[Example 273, 1-[3-tert-butyl-1-(4-chloro-3-hydroxyphenyl)-1H-pyrazol-5-yl]-3-{2-[({3-chloro-6-methyl-1-[2-(methylthio)benzyl]-2-oxo-1,2-dihydropyridin-4-yl}oxy)methyl]benzyl}urea]", "IC50": 121},
      {"smiles": "CSc1ccccc1Cn1c(C)cc(OCc2ccccc2CNC(=O)Nc2cc(C(C)(C)C)nn2-c2ccc(O)c(Cl)c2)c(Cl)c1=O", "note": "[Example 270, 1-[3-tert-butyl-1-(3-chloro-4-hydroxyphenyl)-1H-pyrazol-5-yl]-3-{2-[({3-chloro-6-methyl-1-[2-(methylthio)benzyl]-2-oxo-1,2-dihydropyridin-4-yl}oxy)methyl]benzyl}urea]", "IC50": 32.7},
      {"smiles": "COc1ccccc1Cn1c(C)cc(OCc2ccccc2CNC(=O)Nc2cc(C(C)(C)C)nn2-c2cccc(O)c2)c(Cl)c1=O", "note": "[Example 247, 1-[3-tert-butyl-1-(3-hydroxyphenyl)-1H-pyrazol-5-yl]-3-[2-({[3-chloro-1-(2-methoxybenzyl)-6-methyl-2-oxo-1,2-dihydropyridin-4-yl]oxy}methyl)benzyl]urea]", "IC50": 10.5},
      {"smiles": "CNC(=O)c1ccc(C)c(-n2c(C)cc(OCc3ccccc3CNC(=O)Nc3cc(C(C)(C)C)nn3-c3ccc(O)c(Cl)c3)c(Cl)c2=O)c1", "note": "[Example 223, 3-{4-[(2-{[({[3-tert-butyl-1-(3-chloro-4-hydroxyphenyl)-1H-pyrazol-5-yl]amino}carbonyl)amino]methyl}benzyl)oxy]-3-chloro-6-methyl-2-oxopyridin-1(2H)-yl}-N,4-dimethylbenzamide]", "IC50": 4.6},
      {"smiles": "COc1ccc(Cn2c(C)cc(OCc3ccccc3CNC(=O)Nc3cc(C(C)(C)C)nn3-c3cccc(OCCO)c3)c(Cl)c2=O)cc1Cl", "note": "[Example 265, 1-{3-tert-butyl-1-[3-(2-hydroxyethoxy)phenyl]-1H-pyrazol-5-yl}-3-[2-({[3-chloro-1-(3-chloro-4-methoxybenzyl)-6-methyl-2-oxo-1,2-dihydropyridin-4-yl]oxy}methyl)benzyl]urea]", "IC50": 8.4}
    ]}
  ]
}
